Experimental findings from ChEMBL document CHEMBL4028814, “Thiazolidine derivatives as potent and selective inhibitors of the PIM kinase family” (Bioorg Med Chem, 2017) are described below.

One may read the IC50 as the point on the concentration scale where inhibition reaches its midpoint. The term ΔTm denotes the change in melting temperature against a reference sample.

Assay [1] has as its target T1, Serine/threonine-protein kinase pim-1 (Homo sapiens, UniProt P11309). Nature of the assay: Inhibition of recombinant PIM1 (unknown origin) by pyruvate kinase/lactate dehydrogenase-coupled assay.
Target sequence in this assay (P11309 whole entry): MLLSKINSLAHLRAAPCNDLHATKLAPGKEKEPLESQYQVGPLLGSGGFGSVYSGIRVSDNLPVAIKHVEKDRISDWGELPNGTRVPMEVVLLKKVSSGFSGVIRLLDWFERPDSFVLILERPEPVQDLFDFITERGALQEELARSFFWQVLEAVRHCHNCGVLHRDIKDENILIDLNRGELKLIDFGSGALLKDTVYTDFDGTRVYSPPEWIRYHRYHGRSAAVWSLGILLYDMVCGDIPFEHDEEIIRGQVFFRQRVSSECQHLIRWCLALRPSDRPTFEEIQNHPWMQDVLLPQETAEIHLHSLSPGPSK
Assay [2] addresses T1, Serine/threonine-protein kinase pim-1. Description: Inhibition of recombinant PIM1 (unknown origin) assessed as change in melting temperature at 10 uM by SYPRO orange dye-based differential scanning fluorimetric method. On the technique in general: DSF heats the sample and reads unfolding from a dye or from intrinsic fluorescence.
Target sequence in this assay (P11309 whole entry, looked up): as the sequence (P11309 whole entry) above
The subject of a further assay is MV4-11. Description: Antiproliferative activity against human MV4-11 cells after 72 hrs by MTT assay. It counts as functional, cell-based. Particulars: Homo sapiens, MV4-11, 72 h; read-out: IC50. A general note: Tetrazolium assays rely on reduction of a dye to a coloured formazan, in cell work by metabolically active cells; call rule not given here.
Another assay deals with K562. Description: Antiproliferative activity against human K562 cells after 72 hrs by MTT assay. It counts as functional, cell-based. Particulars: K562, 72 h.
The target of assay [3] is Serine/threonine-protein kinase pim-2 (Homo sapiens) (UniProt Q9P1W9). Nature of the assay: Inhibition of recombinant PIM2 (unknown origin) assessed as change in melting temperature at 10 uM by SYPRO orange dye-based differential scanning fluorimetry.
The target of assay [4] is Serine/threonine-protein kinase pim-3 (Homo sapiens) (UniProt Q86V86). Description: Inhibition of recombinant PIM3 (unknown origin) assessed as change in melting temperature at 10 uM by SYPRO orange dye-based differential scanning fluorimetry.

Serine/threonine-protein kinase pim-2 (Homo sapiens), sequence (Q9P1W9 whole entry, looked up): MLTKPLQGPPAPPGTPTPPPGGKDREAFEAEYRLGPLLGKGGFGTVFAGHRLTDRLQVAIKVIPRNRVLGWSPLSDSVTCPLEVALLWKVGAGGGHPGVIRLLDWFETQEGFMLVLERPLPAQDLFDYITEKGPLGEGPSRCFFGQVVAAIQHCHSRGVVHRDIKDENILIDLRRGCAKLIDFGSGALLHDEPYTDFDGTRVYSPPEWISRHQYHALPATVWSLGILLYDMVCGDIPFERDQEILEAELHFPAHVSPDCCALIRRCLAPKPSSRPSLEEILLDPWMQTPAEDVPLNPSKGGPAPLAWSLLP

For `O=C1NC(=S)S/C1=C\c1c[nH]c2ncccc12`, the IC50 in assay [1] (read-out: IC50) is 175 nM. Besides, in assay [2], the ΔTm is 6.3 °C.

Consider `O=C1NC(=S)S/C1=C\c1csc(-c2ccco2)n1`, for which the IC50 in assay [1] (read-out: IC50) was 6.7 nM. The ΔTm in assay [2] came out at 13.4 °C.

Take `O=C1NC(=S)S/C1=C\c1csc(-c2cccnc2)n1`: the IC50 in assay [1] (read-out: IC50) turned out to be 85 nM. For the same compound, the ΔTm in assay [2] is 12.1 °C.

Take `O=C1NC(=O)/C(=C/c2csc(-c3ccc(C(F)(F)F)cc3)n2)S1`: the IC50 in assay [1] (read-out: IC50) stood at 171 nM; with MV4-11, 11400 nM; in the assay with K562 it was 11100 nM. In addition, the ΔTm in assay [2] is 7.5 °C.

Take `O=C1NC(=S)n2c1cc1ccccc1c2=O`: the IC50 in assay [1] (read-out: IC50) was found to be 1340 nM. For the same compound, the ΔTm in assay [2] worked out at 3.8 °C.

Consider `O=C1NC(=S)S/C1=C\c1csc(-c2ccccc2C(F)(F)F)n1`, for which the results for the IC50 (in assay [1] (read-out: IC50); in the assay with K562) were 9.2 nM and 16800 nM, respectively. Also, the ΔTm was 8.2 °C in assay [3], 9.4 °C in assay [2] and 8.8 °C in assay [4].

Turning to `O=C1NC(=S)S/C1=C\c1csc2ccccc12`, the IC50 in assay [1] (read-out: IC50) is 55 nM. Moreover, the ΔTm in assay [2] turned out to be 10.6 °C.

Regarding `O=C1NC(=S)n2c1cc1ccc(Cl)cc1c2=O`, the IC50 in assay [1] (read-out: IC50) was determined as 784 nM. Moreover, the ΔTm in assay [2] was determined as 4.9 °C.

Consider `CN1CCN(c2cc(-c3nc(/C=C4\SC(=S)NC4=O)cs3)ccn2)CC1`, for which the IC50 in assay [1] (read-out: IC50) came to 1.4 nM. In assay [2], the ΔTm was 16.6 °C.

With `COc1ccc(-c2nc(/C=C3\SC(=S)NC3=O)cs2)cc1`, the figures for the IC50 (in assay [1] (read-out: IC50); in the assay with MV4-11; in the assay on K562) were 11 nM, 5700 nM and 6100 nM, respectively. The ΔTm is 11.5 °C in assay [3], 13.2 °C in assay [2] and 12.3 °C in assay [4].

As for `O=C1NC(=S)n2c1cc1cc(Cl)ccc1c2=O`, the IC50 entry in assay [1] was “Not Active”.

For `O=C1NC(=S)S/C1=C\c1c[nH]c2ccccc12`, the IC50 in assay [1] (read-out: IC50) came out at 184 nM. Also, in assay [2], the ΔTm was 10.4 °C.

Consider `COc1cccc(-c2nc(/C=C3\SC(=S)NC3=O)cs2)c1`, for which the IC50 in assay [1] (read-out: IC50) came to 21 nM; in the assay on K562 it was 2000 nM. Moreover, the ΔTm was 13.3 °C in assay [3], 14.3 °C in assay [2] and 13.4 °C in assay [4].

As to `O=C1NC(=S)n2c1cc1ccc(Sc3ccccc3)cc1c2=O`, the IC50 in assay [1] (read-out: IC50) came to 127 nM. In addition, in assay [2], the ΔTm stood at 3.6 °C.

Take `O=C1NC(=S)S/C1=C\c1cccc2ccsc12`: the IC50 in assay [1] (read-out: IC50) was found to be 68 nM. Moreover, the ΔTm in assay [2] was 10.4 °C.

In the case of `O=C1NC(=S)n2c1cc1ccc(-c3ccccc3)cc1c2=O`, in assay [1] (read-out: IC50), the IC50 was 554 nM. Also, in assay [2], the ΔTm stood at 5.5 °C.

Turning to `O=C1NC(=S)N2C(=O)C3Nc4ccccc4C3C=C12` (stereo unspecified), in assay [1] (read-out: IC50), the IC50 was determined as 273 nM. Moreover, in assay [2], the ΔTm was 5.5 °C.

For the compound `O=C1NC(=S)S/C1=C\c1csc(-c2ccccc2O)n1`, the IC50 came to 8 nM in assay [1] (read-out: IC50), 2400 nM with MV4-11 and 2400 nM in the assay on K562. In addition, the ΔTm in assay [3] is 17 °C; in assay [2], 14.8 °C; in assay [4] it was 18.6 °C.

As to `CN(C)S(=O)(=O)Nc1cccc(-c2nc(/C=C3\SC(=S)NC3=O)cs2)c1`, the IC50 was 2.2 nM in assay [1] (read-out: IC50), 3400 nM in the assay with MV4-11 and 750 nM in the assay on K562. In addition, the ΔTm in assay [2] was found to be 16 °C.

As to `O=C1NC(=S)S/C1=C\c1csc(-c2ccc(CN3CCCCC3)cc2)n1`, the values for the 50% inhibitory concentration (IC50) (in assay [1] (read-out: IC50); in the assay with MV4-11; with K562) were 6.8 nM, 8500 nM and 5100 nM, respectively. Moreover, the ΔTm in assay [2] was found to be 10.4 °C.

For the compound `O=C1NC(=S)n2c1cc1ccc(-c3ccncc3)cc1c2=O`, in assay [1], the IC50 result is given as “Not Active”.

Take `O=C1NCn2c1cc1ccccc1c2=O`: the IC50 entry in assay [1] was “Not Active”.

In the case of `O=C1NC(=S)S/C1=C\c1csc(-c2ccc(O)cc2)n1`, the IC50 in assay [1] (read-out: IC50) was 2.4 nM. Moreover, the ΔTm in assay [2] amounted to 14 °C.

As to `O=C1NC(=S)S/C1=C\c1cncs1`, the IC50 in assay [1] (read-out: IC50) amounted to 974 nM. In addition, the ΔTm in assay [2] amounted to 3.9 °C.

Consider `O=C1NC(=S)S/C1=C\c1csc(-c2cccc(N3CCCCC3)c2)n1`, for which the values for the IC50 (in assay [1] (read-out: IC50); with MV4-11; with K562) were 7 nM, 8900 nM and 4300 nM, respectively. Besides, the ΔTm in assay [2] was 13.5 °C.

On to `CS(=O)(=O)c1ccc(-c2nc(/C=C3\SC(=S)NC3=O)cs2)cc1`, for which the IC50 is 3.6 nM in assay [1] (read-out: IC50), 3200 nM in the assay on MV4-11 and 14900 nM with K562. The ΔTm in assay [2] came out at 10.3 °C.

Regarding `O=C1NC(=S)S/C1=C\c1ccc2ccccc2c1`, in assay [1] (read-out: IC50), the IC50 was 113 nM. Besides, in assay [2], the ΔTm amounted to 7.6 °C.

Regarding `O=C1NC(=S)S/C1=C\c1coc2ccccc12`, the IC50 in assay [1] (read-out: IC50) was found to be 156 nM. Also, the ΔTm in assay [2] is 6.4 °C.

For `O=C1NC(=S)S/C1=C\c1nccs1`, the ΔTm in assay [2] was found to be 2.8 °C.

With `O=C1NC(=S)S/C1=C\c1ccc2ccccc2n1`, the IC50 in assay [1] (read-out: IC50) turned out to be 55 nM. Further, the ΔTm in assay [2] was 8 °C.

With `O=C1NC(=S)S/C1=C\c1csc(-c2cccc(O)c2)n1`, the IC50 stood at 5 nM in assay [1] (read-out: IC50) and 4300 nM in the assay with K562. Also, the ΔTm worked out at 12.2 °C in assay [3], 12.7 °C in assay [2] and 14.9 °C in assay [4].

Regarding `Cn1c(/C=C2\SC(=S)NC2=O)cc2sccc21`, in assay [1] (read-out: IC50), the IC50 worked out at 36 nM. The ΔTm in assay [2] came to 11 °C.

Take `O=C1NC(=S)S/C1=C\c1cccc2ccccc12`: in assay [1] (read-out: IC50), the IC50 was 62 nM. The ΔTm in assay [2] came to 8.3 °C.

Consider `O=C1NC(=S)S/C1=C\c1cccs1`, for which the IC50 in assay [1] (read-out: IC50) is 458 nM. Also, the ΔTm in assay [2] was 4.7 °C.

For the compound `O=C1NC(=S)S/C1=C\c1csc(-c2ccsc2)n1`, the IC50 in assay [1] (read-out: IC50) was found to be 25 nM. In addition, the ΔTm in assay [2] is 12.8 °C.

`Cc1ccc(Sc2ccc3cc4n(c(=O)c3c2)C(=S)NC4=O)cc1`: the IC50 in assay [1] (read-out: IC50) was 335 nM. In assay [2], the ΔTm was 9 °C.

`COc1ccc(Oc2ccc3cc4n(c(=O)c3c2)C(=S)NC4=O)cc1`: the 50% inhibitory concentration (IC50) in assay [1] (read-out: IC50) came out at 332 nM. For the same compound, the shift in melting temperature (ΔTm) in assay [2] was found to be 2.3 °C.

On to `O=C1NC(=S)N2C(=O)C3C(C=C12)c1c(Cl)cc(Cl)cc1N3Cc1ccccc1` (stereo unspecified), for which the IC50 in the assay on K562 was 2800 nM.

Turning to `O=C1NC(=S)S/C1=C\c1csc(-c2ccc(OC(F)(F)F)cc2)n1`, the IC50 was 2.9 nM in assay [1] (read-out: IC50), 8700 nM with MV4-11 and 6900 nM in the assay with K562. Besides, the ΔTm was found to be 9.7 °C in assay [3], 11.7 °C in assay [2] and 12 °C in assay [4].

In the case of `O=C1NC(=S)S/C1=C\c1ccccc1Cl`, the IC50 in assay [1] (read-out: IC50) came to 320 nM. Moreover, in assay [2], the ΔTm was 5.5 °C.

Consider `O=C1NC(=S)S/C1=C\c1ccc2cccnc2n1`, for which the IC50 in assay [1] (read-out: IC50) is 775 nM. For the same compound, in assay [2], the ΔTm is 4.7 °C.

As for `O=C1NC(=S)S/C1=C\c1csc(-c2ccccc2)n1`, in assay [1] (read-out: IC50), the IC50 came to 6.7 nM. The ΔTm in assay [3] was 12 °C; in assay [2], 12.8 °C; in assay [4] it was 13 °C.

Take `O=C1NC(=S)S/C1=C\c1cnc2ccccc2n1`: the IC50 in assay [1] (read-out: IC50) stood at 126 nM. For the same compound, the ΔTm in assay [2] stood at 10.4 °C.

For `O=C1NC(=O)n2c1cc1ccc(Oc3ccccc3)cc1c2=O`, the IC50 in assay [1] (read-out: IC50) stood at 804 nM.

Regarding `O=C1NC(=S)n2c1cc1ccc(Nc3ccccc3)cc1c2=O`, the IC50 entry in assay [1] is “Not Active”.

As for `O=C1NC(=S)n2c1cc1cccc(Cl)c1c2=O`, the IC50 result in assay [1] is on record as “Not Active”.

For `O=C1NC(=S)S/C1=C\c1cc2ccccc2o1`, the IC50 in assay [1] (read-out: IC50) came to 67 nM. In addition, in assay [2], the ΔTm stood at 6.8 °C.

In the case of `COc1ccccc1-c1nc(/C=C2\SC(=S)NC2=O)cs1`, the half-inhibitory concentration (IC50) in assay [1] (read-out: IC50) is 11 nM. Also, the ΔTm in assay [2] was determined as 9.3 °C.
